# Data taken from ChEMBL document CHEMBL5724914, “Linking interpersonal differences in gut microbiota composition and drug biotransformation activity” (2024).
# Conditions: human gut metagenome, 24 h, 2 µM
# Note: call rule not given here.
row,Bacterial Biotransformation,Compound
1,Compound metabolized,Cc1ccc(-c2cc(C(F)(F)F)nn2-c2ccc(S(N)(=O)=O)cc2)cc1 [CELECOXIB]
2,Compound NOT metabolized,COc1c2occc2cc2ccc(=O)oc12 [METHOXSALEN]

# Assay: (§1) The drug is tested on Z-001 corresponding to mouse gut metagenome with ENA study accession number: PRJEB37062 and ENA sample accession number: ERS12561801 for biotransformation under anaerobic condition. The drug concentrations were measured over 9 timepoints collected between 0 and 24 hours of incubation by liquid-chromatography-coupled mass spectrometry (LC–MS)
# Conditions: 2 µM
row,Bacterial Biotransformation,Compound
1,Compound NOT metabolized,Cc1ccc(-c2cc(C(F)(F)F)nn2-c2ccc(S(N)(=O)=O)cc2)cc1 [CELECOXIB]
2,Compound NOT metabolized,COc1c2occc2cc2ccc(=O)oc12 [METHOXSALEN]

# Conditions: human gut metagenome, 24 h, 2 µM
# Remark: another data set of the same source
row,Bacterial Biotransformation,Compound
1,Compound metabolized,Cc1ccc(-c2cc(C(F)(F)F)nn2-c2ccc(S(N)(=O)=O)cc2)cc1 [CELECOXIB]
2,Compound metabolized,COc1c2occc2cc2ccc(=O)oc12 [METHOXSALEN]

# Conditions: human gut metagenome, 24 h, 2 µM
# Remark: another data set of the same source
row,Bacterial Biotransformation,Compound
1,Compound metabolized,Cc1ccc(-c2cc(C(F)(F)F)nn2-c2ccc(S(N)(=O)=O)cc2)cc1 [CELECOXIB]
2,Compound metabolized,COc1c2occc2cc2ccc(=O)oc12 [METHOXSALEN]

# Conditions: human gut metagenome, 24 h, 2 µM
# Remark: another data set of the same source
row,Bacterial Biotransformation,Compound
1,Compound metabolized,Cc1ccc(-c2cc(C(F)(F)F)nn2-c2ccc(S(N)(=O)=O)cc2)cc1 [CELECOXIB]
2,Compound metabolized,COc1c2occc2cc2ccc(=O)oc12 [METHOXSALEN]

# Conditions: human gut metagenome, 24 h, 2 µM
# Remark: another data set of the same source
row,Bacterial Biotransformation,Compound
1,Compound NOT metabolized,Cc1ccc(-c2cc(C(F)(F)F)nn2-c2ccc(S(N)(=O)=O)cc2)cc1 [CELECOXIB]
2,Compound NOT metabolized,COc1c2occc2cc2ccc(=O)oc12 [METHOXSALEN]

# Conditions: human gut metagenome, 24 h, 2 µM
# Remark: another data set of the same source
row,Bacterial Biotransformation,Compound
1,Compound metabolized,Cc1ccc(-c2cc(C(F)(F)F)nn2-c2ccc(S(N)(=O)=O)cc2)cc1 [CELECOXIB]
2,Compound metabolized,COc1c2occc2cc2ccc(=O)oc12 [METHOXSALEN]

# Assay: as §1, with “Z-028” for “Z-001”, “ERS12561827” for “ERS12561801”
# Conditions: 2 µM
row,Bacterial Biotransformation,Compound
1,Compound NOT metabolized,Cc1ccc(-c2cc(C(F)(F)F)nn2-c2ccc(S(N)(=O)=O)cc2)cc1 [CELECOXIB]
2,Compound metabolized,COc1c2occc2cc2ccc(=O)oc12 [METHOXSALEN]

# Assay: as §1, with “Z-013” for “Z-001”, “rabbit” for “mouse”, “ERS12561813” for “ERS12561801”
# Conditions: 2 µM
row,Bacterial Biotransformation,Compound
1,Compound NOT metabolized,Cc1ccc(-c2cc(C(F)(F)F)nn2-c2ccc(S(N)(=O)=O)cc2)cc1 [CELECOXIB]
2,Compound metabolized,COc1c2occc2cc2ccc(=O)oc12 [METHOXSALEN]

# Assay: as §1, with “Z-007” for “Z-001”, “rat” for “mouse”, “ERS12561807” for “ERS12561801”
# Conditions: 2 µM
row,Bacterial Biotransformation,Compound
1,Compound NOT metabolized,Cc1ccc(-c2cc(C(F)(F)F)nn2-c2ccc(S(N)(=O)=O)cc2)cc1 [CELECOXIB]
2,Compound NOT metabolized,COc1c2occc2cc2ccc(=O)oc12 [METHOXSALEN]

# Assay: as §1, with “Z-024” for “Z-001”, “pig” for “mouse”, “ERS12561823” for “ERS12561801”
# Conditions: 2 µM
row,Bacterial Biotransformation,Compound
1,Compound NOT metabolized,Cc1ccc(-c2cc(C(F)(F)F)nn2-c2ccc(S(N)(=O)=O)cc2)cc1 [CELECOXIB]
2,Compound metabolized,COc1c2occc2cc2ccc(=O)oc12 [METHOXSALEN]

# Conditions: human gut metagenome, 24 h, 2 µM
# Remark: another data set of the same source
row,Bacterial Biotransformation,Compound
1,Compound metabolized,Cc1ccc(-c2cc(C(F)(F)F)nn2-c2ccc(S(N)(=O)=O)cc2)cc1 [CELECOXIB]
2,Compound metabolized,COc1c2occc2cc2ccc(=O)oc12 [METHOXSALEN]

# Assay: as §1, with “Z-009” for “Z-001”, “pig” for “mouse”, “ERS12561809” for “ERS12561801”
# Conditions: 2 µM
row,Bacterial Biotransformation,Compound
1,Compound NOT metabolized,Cc1ccc(-c2cc(C(F)(F)F)nn2-c2ccc(S(N)(=O)=O)cc2)cc1 [CELECOXIB]
2,Compound metabolized,COc1c2occc2cc2ccc(=O)oc12 [METHOXSALEN]

# Assay: as §1, with “WLS-082” for “Z-001”, “human” for “mouse”, “ERS12561751” for “ERS12561801”
# Conditions: 2 µM
row,Bacterial Biotransformation,Compound
1,Compound metabolized,Cc1ccc(-c2cc(C(F)(F)F)nn2-c2ccc(S(N)(=O)=O)cc2)cc1 [CELECOXIB]

# Conditions: human gut metagenome, 24 h, 2 µM
# Remark: another data set of the same source
row,Bacterial Biotransformation,Compound
1,Compound metabolized,Cc1ccc(-c2cc(C(F)(F)F)nn2-c2ccc(S(N)(=O)=O)cc2)cc1 [CELECOXIB]
2,Compound metabolized,COc1c2occc2cc2ccc(=O)oc12 [METHOXSALEN]

# Conditions: human gut metagenome, 24 h, 2 µM
# Remark: another data set of the same source
row,Bacterial Biotransformation,Compound
1,Compound NOT metabolized,Cc1ccc(-c2cc(C(F)(F)F)nn2-c2ccc(S(N)(=O)=O)cc2)cc1 [CELECOXIB]

# Assay: as §1, with “WLS-006” for “Z-001”, “human” for “mouse”, “ERS12561741” for “ERS12561801”
# Conditions: 2 µM
row,Bacterial Biotransformation,Compound
1,Compound metabolized,Cc1ccc(-c2cc(C(F)(F)F)nn2-c2ccc(S(N)(=O)=O)cc2)cc1 [CELECOXIB]
2,Compound metabolized,COc1c2occc2cc2ccc(=O)oc12 [METHOXSALEN]

# Conditions: human gut metagenome, 24 h, 2 µM
# Remark: another data set of the same source
row,Bacterial Biotransformation,Compound
1,Compound metabolized,Cc1ccc(-c2cc(C(F)(F)F)nn2-c2ccc(S(N)(=O)=O)cc2)cc1 [CELECOXIB]
2,Compound metabolized,COc1c2occc2cc2ccc(=O)oc12 [METHOXSALEN]

# Assay: as §1, with “Z-020” for “Z-001”, “rabbit” for “mouse”, “ERS12561819” for “ERS12561801”
# Conditions: 2 µM
row,Bacterial Biotransformation,Compound
1,Compound NOT metabolized,Cc1ccc(-c2cc(C(F)(F)F)nn2-c2ccc(S(N)(=O)=O)cc2)cc1 [CELECOXIB]
2,Compound metabolized,COc1c2occc2cc2ccc(=O)oc12 [METHOXSALEN]

# Assay: as §1, with “Z-027” for “Z-001”, “to” for “to mouse gut”, “ERS12561826” for “ERS12561801”
# Conditions: 2 µM
row,Bacterial Biotransformation,Compound
1,Compound NOT metabolized,Cc1ccc(-c2cc(C(F)(F)F)nn2-c2ccc(S(N)(=O)=O)cc2)cc1 [CELECOXIB]
2,Compound metabolized,COc1c2occc2cc2ccc(=O)oc12 [METHOXSALEN]
